# Results reported in patent US20210277246A1, “PROBE FOR DETECTING CARBAPENEM-RESISTANT BACTERIA AND USE THEREOF” (priority 2018, published 2021).
# Key:
# [1] = system: GES; assay: Fluorescent probe detection in lysed clinical isolates; assay type: biochemical, Enterobacteriaceae; settings: Ambler class A, 2 isolates
# Protocol: (§1) The detection efficiency of carbapenemase-producing carbapenem-resistant bacteria of a control probe OMCL01201 (CPC-1 described in Chinese Patent Publication No. CN106279178A) and the OMCL01203 probe of the present disclosure was evaluated at Gangnam St. Mary's Hospital for the bacteria described in Table 1.
# (§2) Briefly, 10 μL of a sample was lysed with a Tris-HCl buffer (B-PER, Thermo Scientific Pierce) and then vortexed for 1 minute. After culturing for 30 minutes at room temperature and centrifuging for 5 minutes (10,000 g), 30 μL of the supernatant was reacted with 100 μL of PBS and 13 μL of the fluorescent probe (1 mM). Then, fluorescence was measured for 50 minutes with 5-minute intervals using a fluorescence plate reader (Infinite F200pro, Tecan Group Ltd.).
# [2] = system: IMP; assay: as above; assay type: biochemical, Enterobacteriaceae; settings: Ambler class B, 1 isolate
# Protocol: as §1, §2
# [3] = system: KPC/OXA; assay: as above; assay type: biochemical, Enterobacteriaceae; settings: KPC/OXA co-producing; 2 isolates
# Protocol: as §1, §2
# [4] = system: KPC; assay: as above; assay type: biochemical, Enterobacteriaceae; settings: Ambler class A, 33 isolates
# Protocol: as §1, §2
# [5] = system: NDM/OXA; assay: as above; assay type: biochemical, Enterobacteriaceae; settings: NDM/OXA co-producing; 1 isolate
# Protocol: as §1, §2
# [6] = system: NDM; assay: as above; assay type: biochemical, Enterobacteriaceae; settings: Ambler class B, 9 isolates
# Protocol: as §1, §2
# [7] = system: OXA; assay: as above; assay type: biochemical, Enterobacteriaceae; settings: Ambler class D, 6 isolates
# Protocol: as §1, §2
# [8] = system: VIM; assay: as above; assay type: biochemical, Enterobacteriaceae; settings: Ambler class B, 7 isolates
# Protocol: as §1, §2
# [9] = system: CPE (carbapenemase-producing Enterobacteriaceae); assay: as above; assay type: biochemical; settings: CPE total; 61 isolates
# Protocol: as §1, §2
# [10] = system: Non-CP CRE; assay: as above; assay type: biochemical
# Protocol: as §1, §2
# [11] = system: CTX-M (ESBL-producer); assay: Fluorogenic assay (OMCL01203 probe); assay type: biochemical; set-up: key: Pos, positive; Neg, negative
# Protocol: as §2
# (§3) In addition, the detection efficiency of the fluorescence detection method using the OMCL01203 probe was compared for carbapenemase-producing carbapenem-resistant bacteria (CP-CRE) and non-carbapenemase-producing carbapenem-resistant bacteria (non-CP-CRE) with mCIM, CarbaNP and CIT methods.
# [12] = system: GES; assay: Fluorogenic assay (OMCL01203 probe); assay type: biochemical; set-up: key: Pos, positive; Neg, negative; settings: Escherichia coli, 2 isolates
# Protocol: as §2, §3
# [13] = system: IMP; assay: Fluorogenic assay (OMCL01203 probe); assay type: biochemical; set-up: key: Pos, positive; Neg, negative; settings: Escherichia coli, 1 isolate
# Protocol: as §2, §3
# [14] = system: KPC/OXA; assay: Fluorogenic assay (OMCL01203 probe); assay type: biochemical; set-up: key: Pos, positive; Neg, negative; settings: KPC/OXA co-producing; Klebsiella pneumoniae; 2 isolates
# Protocol: as §2, §3
# [15] = system: KPC; assay: Fluorogenic assay (OMCL01203 probe); assay type: biochemical; set-up: key: Pos, positive; Neg, negative
# Protocol: as §2, §3
# [16] = system: NDM/OXA; assay: Fluorogenic assay (OMCL01203 probe); assay type: biochemical; set-up: key: Pos, positive; Neg, negative; settings: NDM/OXA co-producing; Klebsiella pneumoniae; 1 isolate
# Protocol: as §2, §3
# [17] = system: NDM; assay: Fluorogenic assay (OMCL01203 probe); assay type: biochemical; set-up: key: Pos, positive; Neg, negative
# Protocol: as §2, §3
# [18] = system: OXA; assay: Fluorogenic assay (OMCL01203 probe); assay type: biochemical; set-up: key: Pos, positive; Neg, negative
# Protocol: as §2, §3
# [19] = system: VIM; assay: Fluorogenic assay (OMCL01203 probe); assay type: biochemical; set-up: key: Pos, positive; Neg, negative
# Protocol: as §2, §3
# [20] = system: non-CP-CRE; assay: Fluorogenic assay (OMCL01203 probe); assay type: biochemical; set-up: key: Pos, positive; Neg, negative
# Protocol: as §2, §3
# [21] = system: non-producer; assay: Fluorogenic assay (OMCL01203 probe); assay type: biochemical; set-up: key: Pos, positive; Neg, negative
# Protocol: as §2, §3
# [22] = system: GES; assay: Fluorogenic assay (OMCL01203 probe); assay type: biochemical; settings: Klebsiella pneumoniae, 1 isolate
# Protocol: as §2, §3
# [23] = system: OXA; assay: Fluorogenic assay (OMCL01203 probe); assay type: biochemical; settings: Escherichia coli, 3 isolates, number of isolates in brackets
# Protocol: as §2, §3
# [24] = system: non-CPE (negative bacteria); assay: Fluorogenic assay (OMCL01203 probe), all non-CPE of Table 2; assay type: biochemical
# Protocol: as §2, §3
# [25] = system: Citrobacter freundii (KPC); assay: MIC of carbapenems for isolates; assay type: cell-based; settings: 1 isolate
# [26] = system: Escherichia coli (KPC); assay: MIC of carbapenems for isolates; assay type: cell-based; settings: 3 isolates
# [27] = system: Klebsiella aerogenes (KPC); assay: MIC of carbapenems for isolates; assay type: cell-based; settings: 1 isolate
# [28] = system: Klebsiella oxytoca (KPC); assay: MIC of carbapenems for isolates; assay type: cell-based; settings: 1 isolate
# [29] = system: Klebsiella pneumoniae (GES); assay: MIC of carbapenems for isolates; assay type: cell-based; settings: 1 isolate
# [30] = system: Citrobacter freundii (NDM); assay: MIC of carbapenems for isolates; assay type: cell-based; settings: 1 isolate
# [31] = system: Enterobacter cloacae (NDM); assay: MIC of carbapenems for isolates; assay type: cell-based; settings: 2 isolates
# [32] = system: Escherichia coli (NDM); assay: MIC of carbapenems for isolates; assay type: cell-based; settings: 4 isolates
# [33] = system: Klebsiella pneumoniae (NDM); assay: MIC of carbapenems for isolates; assay type: cell-based; settings: 1 isolate
# [34] = system: Morganella morganii (NDM); assay: MIC of carbapenems for isolates; assay type: cell-based; settings: 1 isolate
# [35] = system: Enterobacter cloacae (VIM); assay: MIC of carbapenems for isolates; assay type: cell-based; settings: 1 isolate
# [36] = system: Klebsiella oxytoca (VIM); assay: MIC of carbapenems for isolates; assay type: cell-based; settings: 1 isolate
# [37] = system: Klebsiella pneumoniae (VIM); assay: MIC of carbapenems for isolates; assay type: cell-based; settings: 1 isolate
# [38] = system: Escherichia coli (IMP); assay: MIC of carbapenems for isolates; assay type: cell-based; settings: 1 isolate
# [39] = system: Citrobacter freundii (OXA); assay: MIC of carbapenems for isolates; assay type: cell-based; settings: 1 isolate
# [40] = system: Klebsiella pneumoniae (NDM/OXA); assay: MIC of carbapenems for isolates; assay type: cell-based; settings: NDM/OXA co-producing, 1 isolate
# [41] = system: Citrobacter freundii (non-CP-CRE); assay: MIC of carbapenems for isolates; assay type: cell-based; settings: 1 isolate
# [42] = system: Enterobacter cloacae (non-CP-CRE); assay: MIC of carbapenems for isolates; assay type: cell-based; settings: 10 isolates
# [43] = system: Escherichia coli (non-producer); assay: MIC of carbapenems for isolates; assay type: cell-based; settings: 32 isolates
# [44] = system: Klebsiella pneumoniae (non-producer); assay: MIC of carbapenems for isolates; assay type: cell-based; settings: 21 isolates
# [45] = Citrobacter freundii, 1 isolate
# [46] = Klebsiella pneumoniae, 1 isolate
structure (smiles),measurement,setting,value
C[C@@H](O)[C@H]1C(=O)N2C(C(=O)O)=C(COc3ccc(COc4ccc5ccc(=O)oc5c4)cc3)[C@H](C)[C@H]12 [OMCL01203],Pos. %,[1],100%
same,result(s) (isolates determined positive),[1],2
same,Pos. %,[2],100%
same,result(s) (isolates determined positive),[2],1
same,Pos. %,[3],100%
same,result(s) (isolates determined positive),[3],2
same,Pos. %,[4],100%
same,result(s) (isolates determined positive),[4],33
same,Pos. %,[5],100%
same,result(s) (isolates determined positive),[5],1
same,Pos. %,[6],89%
same,result(s) (isolates determined positive),[6],8
same,Pos. %,[7],83%
same,result(s) (isolates determined positive),[7],5
same,Pos. %,[8],100%
same,result(s) (isolates determined positive),[8],7
same,Pos. %,[9],97%
same,result(s) (isolates determined positive),[9],59
same,Pos. %,"[10]; Non-CP CRE, 40 isolates",0%
same,result(s) (isolates determined positive),"[10]; Non-CP CRE, 40 isolates",0
same,determination of non-CPE species,[10]; all 40 non-CPE species,negative
same,Fluore result,"[11]; Escherichia coli, 29 isolates",Neg
same,Fluore result,"[11]; Klebsiella pneumoniae, 24 isolates",Neg
same,Fluore result,[12],Pos
same,Fluore result,[13],Pos
same,Fluore result,[14],Pos
same,Fluore result,[15]; [45],Pos
same,Fluore result,"[15]; Escherichia coli, 3 isolates",Pos
same,Fluore result,"[15]; Klebsiella aerogenes, 1 isolate",Pos
same,Fluore result,"[15]; Klebsiella oxytoca, 1 isolate",Pos
same,Fluore result,"[15]; Klebsiella pneumoniae, 30 isolates",Pos
same,Fluore result,[16],Pos
same,Fluore result,[17]; [45],Pos
same,Fluore result,"[17]; Enterobacter cloacae, 2 isolates",Pos
same,Fluore result,"[17]; Escherichia coli, 4 isolates",Pos
same,Fluore result,[17]; [46],Pos
same,Fluore result,"[17]; Morganella morganii, 1 isolate",Pos
same,Fluore result,[18]; [45],Pos
same,Fluore result,"[18]; Klebsiella pneumoniae, 2 isolates",Pos
same,Fluore result,"[19]; Citrobacter freundii, 4 isolates",Pos
same,Fluore result,"[19]; Enterobacter cloacae, 1 isolate",Pos
same,Fluore result,"[19]; Klebsiella oxytoca, 1 isolate",Pos
same,Fluore result,[19]; [46],Pos
same,Fluore result,[20]; [45],Neg
same,Fluore result,"[20]; Enterobacter amnigenus, 4 isolates",Neg
same,Fluore result,"[20]; Enterobacter cloacae, 10 isolates",Neg
same,Fluore result,"[20]; Escherichia coli, 8 isolates",Neg
same,Fluore result,"[20]; Klebsiella aerogenes, 3 isolates",Neg
same,Fluore result,"[20]; Klebsiella pneumoniae, 22 isolates",Neg
same,Fluore result,"[21]; Escherichia coli, 32 isolates",Neg
same,Fluore result,"[21]; Klebsiella pneumoniae, 21 isolates",Neg
same,Fluore result,[22],Neg(1)
same,Fluore result,[23]; isolates testing negative,Neg(2)
same,Fluore result,[23]; isolates testing positive,Pos(1);
same,determination of negative bacteria,[24],negative
"C[C@@H](O)[C@H]1C(=O)N2C(C(=O)O)=C(S[C@@H]3CN[C@H](C(=O)Nc4cccc(C(=O)O)c4)C3)[C@H](C)[C@H]12 [ERT, ertapenem]",MIC,[25],> 16 µg/mL
same,MIC,[26],8 µg/mL
same,MIC,[27],> 16 µg/mL
same,MIC,[28],> 16 µg/mL
same,MIC,[29],> 16 µg/mL
same,MIC,[30],> 16 µg/mL
same,MIC,[31],> 16 µg/mL
same,MIC,[32],> 16 µg/mL
same,MIC,[33],> 16 µg/mL
same,MIC,[34],2 µg/mL
same,MIC,[35],1 µg/mL
same,MIC,[36],0.5 µg/mL
same,MIC,[37],> 16 µg/mL
same,MIC,[38],4 µg/mL
same,MIC,[39],1 µg/mL
same,MIC,[40],16 µg/mL
same,MIC,[41],2 µg/mL
same,MIC,[42],2 to 16 µg/mL
same,MIC,[43],≤ 0.125 µg/mL
same,MIC,[44],≤ 0.125 µg/mL
